Measurements taken from patent US20210252115A1, “INHIBITION OF CATALYTIC SITE COMMON TO MULTIPLE 3 ALPHA-OXIDOREDUCTASES FOR TREATMENT OF PROSTATE CANCER” (Health Research, Inc., priority 2016, published 2021).
Entries after “also recorded” stand apart in the source; their conditions may differ.

Legend:
C4-2 cells = assay: DHT levels (LC-MS/MS) in transfected C4-2 cells; type: cell-based, human
Method: (§1) Experiments were performed in triplicate.
(§2) Empty plasmid, or plasmids for over-expression of RDH16 wild-type or RDH16-Y176F, K180R, were expressed into VCaP, C4-2 or CWR-R1 cells and DHT levels were measured using LC-MS/MS. […] C4-2 cells produced measurable levels of DHT that were reduced by dutasteride treatment (p=0.001; FIG. 6C; Table 10). […] C4-2 cells that expressed RDH16-Y176, K180R produced DHT levels similar to C4-2 cells with empty plasmid.

LAPC-4 cells = assay: Androgen levels (LC-MS/MS) in transfected LAPC-4 cells; type: cell-based, human; details: for DHT levels after substrate treatment: 20 nM DIOL or 1 nM T 12 h, vs SFM; for 5α-dione production after substrate treatment: 20 nM DIOL or 20 nM AND 12 h
Method: LAPC-4 cells were plated at 1.2×10^5/well and CV-1 cells at 1×10^4/well in 6-well tissue culture plates (Corning). Media and cell pellets from two 6-well plates were combined to generate 1 media and 1 cell pellet sample for liquid chromatography-tandem mass spectrometry (LC-MS/MS) analysis. LAPC-4 cells were transfected using the Effectene Transfection Kit (Invitrogen, Grand Island, N.Y.). Forty-eight h after transfection, growth media was removed and LAPC-4 cells were washed once with Dulbecco's phosphate buffered saline (PBS, Corning). LAPC-4 cells were treated with serum-free complete media (SFM, Corning) alone or with 1 nM T, 20 nM DIOL 20 nM 5α-androstan-3α-ol-17-one (androsterone; AND) (Steraloids, Newport, R.I.) or 1 μM dutasteride (Selleckchem, Houston, Tex.) for 12 h. CV-1 cells were transfected using X-tremeGene HP transfection reagent (Roche Diagnostics Corporation, Indianapolis, Ind.). After 48 h, growth media were aspirated, CV-1 cells were washed once with PBS and incubated in SFM alone or with 20 nM AND (Steraloids) for 12 h.
After 12 h treatment, media (total 24 mL) were collected in 50 mL conical tubes (Corning). Cells were released using trypsin and collected in 15 mL conical tubes (Corning). The cells were washed 3 times using PBS, re-suspended in 1 mL PBS and 5% of the cell suspension was removed for protein concentration measurement and western blot analysis. The remaining 95% of the cell suspension was centrifuged and the supernatant was removed and discarded. Cell pellets were stored at −80° C. until analyzed using LC-MS/MS.
(§3) Cell pellet and media samples were analyzed over 9 runs for 5 androgens T, DHT, dehydroepiandrosterone, ASD and AND using a validated LC-MS/MS method. […] Study samples were quantitated using aqueous-based spiked calibration standards and pre-spiked quality control samples prepared in 2× charcoal-stripped human postmenopausal female plasma (Bioreclamation, LLC, Westbury, N.Y.).
Androgen concentrations (pmoles/mg protein) in cell lysates measured using LC-MS/MS (ng/mL) were multiplied by the total volume of the lysate (1 mL), normalized by the total amount of protein of the cell pellet (mg), divided by the molecular weight of the androgen (ng/nmole), and converted to pmoles. Media androgen concentrations (ng/mL) were multiplied by the total volume of media (24 mL), normalized against total protein of the cell culture (mg), divided by the molecular weight of the androgen (ng/nmole) and converted to pmoles. Cell pellet and media androgen concentrations were reported combined in Results and separately in Supplemental Results. Experiments were performed in triplicate.
Cell pellets were resuspended in HPLC-grade water and vortexed or sonicated to disrupt cell membranes to obtain a homogeneous suspension. Samples were extracted using 0.25 ml quality control, plasma blank or sample in 0.75-2.0 mL HPLC-grade water, 0.1 ml internal standard (IS) solution (75.0/225 pg/mL d3-T/d3-DHT) and 4 mL methyl-tert-butyl ether (MTBE, Omnisolve®, EMD Milipore, Billerica, Mass.) in glass screw-top tubes. Calibrators were prepared using 50 μl spiking solution prepared in 75% methanol and added to the extraction tube. Either the entire 1 mL cell pellet suspension was added to the extraction tube and the original container rinsed with 25% methanol in water or samples were volume and compositionally corrected. Tubes were capped with Teflon-lined caps, vortexed, rotated 15 min and centrifuged using a Sorvall model RT6000B centrifuge (Thermo Scientific) at 2,800 rpm and 4° C. for 15-30 min to separate liquid phases. The aqueous phase was frozen in a dry ice/acetone bath and MTBE layer was poured into a clean glass conical tube. MTBE was evaporated at 37° C. with nitrogen and the residue was reconstituted with 60% methanol. The suspension was centrifuged using Heraeus Multifuge X3R centrifuge (Thermo Scientific) at 2,800 rpm and 4° C. for 5 min to separate insoluble materials. An aliquot of the supernatant was injected. […]

CWR-R1 cells = assay: DHT levels (LC-MS/MS) in transfected CWR-R1 cells; type: cell-based, human
Method: as §1, §2

VCaP cells = assay: Androgen levels (LC-MS/MS) in VCaP cells; type: cell-based, human; details: for DHT levels / DHT synthesis: VCaP in SFM, 1 μM dutasteride 12 h, no substrate added; for DHT levels after substrate treatment: VCaP, 12 h in SFM with 20 nM DIOL, 20 nM AND or 1 nM T, one cell pellet per condition
Method: FIG. 8: Intracellular T and DHT levels from VCaP cells; Related to FIG. 3. VCaP cells were treated for 12 h in SFM with or without 1 μM Dut, 1 nM T, 20 nM DIOL or 20 nM AND. VCaP cells were harvested, one cell pellet was analyzed for each condition and androgen levels were measured using LC-MS/MS as described in Methods.
as §1, §2

[1] = CaP, background statement; cited from earlier work
LNCaP cells = assay: Androgen levels (LC-MS/MS) in transfected LNCaP cells; type: cell-based, human; details: dutasteride 12 h, cell pellet
Method: FIG. 11: Intracellular LNCaP T levels after treatment with dutasteride or SFM. Related to FIG. 6. LNCaP cells were transfected with empty plasmid, wild-type or Y176F, K180R RDH16, treated with SFM or SFM with dutasteride for 12 h and cell pellet androgen levels were measured using LC-MS/MS. T levels for LNCaP and western blot analysis for DDK tag.
as §1

SRD5A = assay: Tissue DHT levels (LC-MS/MS), Selenium and Finasteride Pre-Treatment Trial; type: in vivo, human; details: research subjects with CaP before radical prostatectomy, benign and malignant macro-dissected samples; data not shown
CV-1 cells = details: CV-1, 20 nM AND 12 h, measurable only in the media
Method: LAPC-4 cells were plated at 1.2×10^5/well and CV-1 cells at 1×10^4/well in 6-well tissue culture plates (Corning). Media and cell pellets from two 6-well plates were combined to generate 1 media and 1 cell pellet sample for liquid chromatography-tandem mass spectrometry (LC-MS/MS) analysis. LAPC-4 cells were transfected using the Effectene Transfection Kit (Invitrogen, Grand Island, N.Y.). Forty-eight h after transfection, growth media was removed and LAPC-4 cells were washed once with Dulbecco's phosphate buffered saline (PBS, Corning). […]
After 12 h treatment, media (total 24 mL) were collected in 50 mL conical tubes (Corning). […] Cell pellets were stored at −80° C. until analyzed using LC-MS/MS.
as §3
Androgen concentrations (pmoles/mg protein) in cell lysates measured using LC-MS/MS (ng/mL) were multiplied by the total volume of the lysate (1 mL), normalized by the total amount of protein of the cell pellet (mg), divided by the molecular weight of the androgen (ng/nmole), and converted to pmoles. […]

C[C@]12C=CC(=O)N[C@@H]1CC[C@@H]1[C@@H]2CC[C@]2(C)[C@@H](C(=O)Nc3cc(C(F)(F)F)ccc3C(F)(F)F)CC[C@@H]12 [dutasteride]
DHT levels (C4-2 cells; C4-2 expressing wild-type RDH16, dutasteride vs SFM): appeared to be reduced | DHT levels (C4-2 cells; C4-2 with empty plasmid, dutasteride vs SFM, p=0.001 in text): reduced | DHT levels (LAPC-4 cells; LAPC-4 expressing mutant RDH16 or DHRS9 plus dutasteride, vs LAPC-4 treated with dutasteride alone): lowered further | DHT levels (LAPC-4 cells; LAPC-4 expressing wild-type RDH16 or DHRS9, 1 μM dutasteride 12 h vs SFM): No effect | DHT levels (LAPC-4 cells; LAPC-4 with empty plasmid, 1 μM dutasteride 12 h vs SFM, cell pellet, p=0.041): decreased; also recorded: lower | T levels (LAPC-4 cells; all LAPC-4 cells except those expressing RDH5-Δcat, dutasteride 12 h, cell pellet): lowered | DHT levels (CWR-R1 cells; CWR-R1 expressing RDH16-Y176F, K180R, dutasteride vs SFM): appeared lower | DHT levels (CWR-R1 cells; CWR-R1 with empty plasmid or wild-type RDH16, dutasteride vs SFM): did not lower | DHT levels (VCaP cells; VCaP expressing wild-type RDH16, dutasteride vs SFM): affected minimally | DHT levels / DHT synthesis (VCaP cells): did not lower | DHT levels / DHT synthesis (VCaP cells; listed as Dutasteride): did not impair DHT synthesis | intratumoral DHT levels [1]: not depleted | T levels (LNCaP cells): not detected

CC(C)(C)NC(=O)[C@H]1CC[C@H]2[C@@H]3CC[C@H]4NC(=O)C=C[C@]4(C)[C@H]3CC[C@]12C [finasteride]
CaP tissue levels of DHT (SRD5A): decreased

C[C@]12CC[C@@H](O)C[C@@H]1CC[C@@H]1[C@@H]2CC[C@]2(C)[C@@H](O)CC[C@@H]12 [DIOL, 5α-androstane-3α, 17β-diol]
DHT levels after substrate treatment (LAPC-4 cells; LAPC-4 with empty plasmid): higher | 5α-dione production after substrate treatment (LAPC-4 cells; LAPC-4 with empty plasmid): produced | DHT levels after substrate treatment (VCaP cells): increased

C[C@]12CC[C@@H](O)C[C@@H]1CC[C@@H]1[C@@H]2CC[C@]2(C)C(=O)CC[C@@H]12 [AND, 5α-androstan-3α-ol-17-one]
5α-dione production after substrate treatment (LAPC-4 cells; LAPC-4 with empty plasmid): produced | 5α-dione production after substrate treatment (CV-1 cells): only a small amount | DHT levels after substrate treatment (VCaP cells): increased

C[C@]12CC[C@H]3[C@@H](CCC4=CC(=O)CC[C@@]43C)[C@@H]1CC[C@@H]2O [T, testosterone]
DHT levels after substrate treatment (LAPC-4 cells; LAPC-4 with empty plasmid): higher | DHT levels after substrate treatment (VCaP cells): not
